PubChem BioAssay AID1996
Converted amounts (≈) assume the structure as drawn.

Conditions: buffer; pH 7.4; 200.0 µM

SMILES	solubility kinetic
CCN(CC)c1ccc2c(Nc3ccccc3)c(C=O)c(=O)oc2c1	< 0.4 µg/mL
CN(Cc1ccc(F)cc1Cl)S(=O)(=O)c1cccs1	6.8 µg/mL (≈ 21.3 µM)
CCOC(=O)c1sc(S(C)=O)c2c1CCc1conc1-2 (stereo not drawn)	> 46.7 µg/mL
O=C(NCCC1CC1(Cl)Cl)c1ccc([N+](=O)[O-])cc1 (stereo not drawn)	36.9 µg/mL (≈ 122 µM)
O=S(=O)(c1ccc(F)cc1)N1CN2CCN(C2)C1	> 40.7 µg/mL
CCOC(=O)c1ccc(N=C(C)c2c(O)[nH]c(=O)[nH]c2=O)cc1	6.6 µg/mL (≈ 20.8 µM)
O=C(CSc1ccccn1)Nc1ccc(Cl)c([N+](=O)[O-])c1	1.7 µg/mL (≈ 5.25 µM)
CC(C)OCCCNC(=O)COc1ccc2oc3c(c2c1)CCCC3	48.1 µg/mL (≈ 139 µM)
CCc1ccc(NC(=O)Cn2cnc([N+](=O)[O-])c2)cc1	23 µg/mL (≈ 83.9 µM)
CCOC(=O)c1c(C)[nH]c(C)c1C(=O)COC(=O)/C=C/c1ccccc1[N+](=O)[O-]	6 µg/mL (≈ 15 µM)
CC(C)(C)NS(=O)(=O)c1ccc(NC(=S)NC(=O)C2CC2)cc1	3 µg/mL (≈ 8.44 µM)
O=C(CSc1ccc(-c2cccnc2)nn1)N1CCCCC1	> 47.2 µg/mL
CN(C)CCNC(=O)c1ccccc1-c1cc2ccccc2c(=O)o1	> 50.5 µg/mL
COc1ccccc1NC(=S)NC(=O)Cc1ccccc1	0.5 µg/mL (≈ 1.66 µM)
COc1cc(CC(=O)Nc2nc(C)cs2)cc(OC)c1OC	42.9 µg/mL (≈ 133 µM)
O=C(Nc1ccc(-c2ccccc2)cc1)c1ccco1	22.4 µg/mL (≈ 85.1 µM)
CC1(C)C(c2ccccc2)=NC(c2ccc(Br)cc2)N1O (stereo not drawn)	3.7 µg/mL (≈ 10.7 µM)
CC(=O)Oc1ccc(C2(C)CC(C)(C)NC(=S)N2C)c(OC(C)=O)c1 (stereo not drawn)	> 54.7 µg/mL
COc1ccc(NC(=S)NC(=O)/C=C/c2ccco2)c(OC)c1	< 0.4 µg/mL
Cc1nc(C)c(-c2csc(Nc3ccccn3)n2)s1	10.2 µg/mL (≈ 35.4 µM)
Cn1c2c(c(=O)n(C)c1=O)C(CC(=O)Nc1ccccc1F)C(=O)N2 (stereo not drawn)	> 51.9 µg/mL
CCc1ccccc1NC(=O)CN(C1CCCCC1)S(C)(=O)=O	> 50.8 µg/mL
CC(=O)c1ccccc1OCCCOc1cccc2cccnc12	45.8 µg/mL (≈ 143 µM)
O=C(Nc1ccc(Br)cc1)c1ccc2c(c1)OCO2	1.3 µg/mL (≈ 4.06 µM)

SMILES	solubility kinetic
Cc1nc(CNS(=O)(=O)c2cc([N+](=O)[O-])ccc2C)cs1	10.3 µg/mL (≈ 31.5 µM)
O=C(Cc1ccc(F)cc1)Nc1ccccc1N1CCCC1	34.1 µg/mL (≈ 114 µM)
COc1cc(/C=C/C(=O)OCC(=O)c2ccc[nH]2)cc(OC)c1OC	9.4 µg/mL (≈ 27.2 µM)
CCOC(=O)c1ccc(S(=O)(=O)Nc2cc(S(=O)(=O)N3CCOCC3)ccc2O)cc1	69.5 µg/mL (≈ 148 µM)
Cc1ccc(OP(N)(=O)Oc2ccc(C)cc2)cc1	29.6 µg/mL (≈ 107 µM)
Cc1cc(NC(=O)c2cc(-c3ccc(Br)cc3)on2)no1	3 µg/mL (≈ 8.62 µM)
COCCNc1ncnc2c1[nH]c1ccccc12	36.2 µg/mL (≈ 149 µM)
CCn1c(Oc2ccccc2F)nc2c1c(=O)n(C)c(=O)n2C	> 47.7 µg/mL
CCC1(c2ccccc2)NC(=O)N(CC(=O)N(c2ccccc2)C2CCS(=O)(=O)C2)C1=O (stereo not drawn)	38 µg/mL (≈ 83.4 µM)
O=C(NCc1ccccn1)Nc1ccc(F)c(Cl)c1	> 42 µg/mL
CCN(C(=O)COC(=O)c1cc(OC)ccc1Br)C1CCS(=O)(=O)C1 (stereo not drawn)	> 65.1 µg/mL
O=C(NC1C2CC3CC(C2)CC1C3)C1CCCCC1 (stereo not drawn)	1.6 µg/mL (≈ 6.12 µM)
CC1CN(C(=O)CSc2nc(N)cc(N)n2)CC(C)O1 (stereo not drawn)	> 44.6 µg/mL
NC(=[NH2+])SCC1=CCS(=O)(=O)C1.[Br-]	39.4 µg/mL
CCN(CC(=O)NCc1cccs1)C(=O)c1ccc(S(=O)(=O)N(C)c2ccccc2)cc1	> 70.7 µg/mL
O=C(CN1CCOCC1)Nc1scc2c1c(=O)oc1ccccc12	< 0.4 µg/mL
CCC(OC(=O)c1ccco1)C(=O)NCc1ccc2c(c1)OCO2 (stereo not drawn)	46.5 µg/mL (≈ 140 µM)
COc1cc(/C=N/NC(=O)c2ccccc2)ccc1O	> 40.5 µg/mL
N#C/C(=C\c1cccnc1)C(=O)Nc1ccc(S(N)(=O)=O)cc1	36.6 µg/mL (≈ 111 µM)
CC(C)(ONC(=O)Nc1ccccc1Cl)C(=O)O	> 40.9 µg/mL
Cc1cc(C)nc(NC(=O)Nc2ccc(F)cc2F)n1	10.2 µg/mL (≈ 36.7 µM)
O=C(c1cc(-c2cccc(Cl)c2)on1)N1CCOCC1	20.1 µg/mL (≈ 68.7 µM)
Cn1ccsc1=NC(=O)c1ccc([N+](=O)[O-])o1	18.4 µg/mL (≈ 72.7 µM)
CCNC1CCS(=O)(=O)C1 (stereo not drawn)	> 24.5 µg/mL

SMILES	solubility kinetic
COc1ccc(/C=C(\C)c2nc(C)c(-c3ccccc3)c(=O)[nH]2)cc1	1.4 µg/mL (≈ 4.21 µM)
COc1cc(S(=O)(=O)NCCCn2ccnc2)ccc1F	46.2 µg/mL (≈ 147 µM)
CCN(CC)CCOC(=O)/C=C/c1ccccc1.Cl	38.5 µg/mL
COC(=O)c1ccc(N2CCN(c3ccccc3)CC2)nc1	1.7 µg/mL (≈ 5.72 µM)
Cc1ccc(-c2cn(-c3ccccc3)c(=S)[nH]2)cc1C	16.6 µg/mL (≈ 59.2 µM)
CC(C)(C)N=C1C([N+](=O)[O-])=CC=C2C1=NC1(CCCCC1)N2O	45.3 µg/mL (≈ 142 µM)
CC(C)Oc1ccc(Cc2cnc(=S)[nH]c2N)cc1	15.4 µg/mL (≈ 55.9 µM)
CCN(CC)c1ccc(N2C(=O)/C(=C/c3ccccn3)SC2=S)cc1	< 0.3 µg/mL
Cc1ccc(NC(=S)N(CCN(C)C)Cc2cccs2)cc1	12.2 µg/mL (≈ 36.6 µM)
Cc1ccc(/C(N)=N/OC(=O)C(C)c2ccc([N+](=O)[O-])cc2)cc1 (stereo not drawn)	8.3 µg/mL (≈ 25.4 µM)
CCCCNC(=O)Cn1nc(Cc2ccncc2)c2ccccc2c1=O	> 52.6 µg/mL
COc1ccc(S(=O)(=O)NCC2CCCO2)cc1Cl (stereo not drawn)	34.2 µg/mL (≈ 112 µM)
Cc1cccc(S(=O)(=O)NCCc2ccccc2)c1	35.7 µg/mL (≈ 130 µM)
Cc1c(C(=O)O)sc2nc(/C=C/c3cccc(O)c3)[nH]c(=O)c12	35.5 µg/mL (≈ 108 µM)
CC(=O)Nc1cc[n+](C(C)C(=O)c2ccccc2)cc1.[Cl-] (stereo not drawn)	34 µg/mL
Cc1nc2ccc([N+](=O)[O-])cc2s1	19.4 µg/mL (≈ 99.9 µM)
CSc1ncccc1C(=O)OCC(=O)NC1CCCc2ccccc21 (stereo not drawn)	5.5 µg/mL (≈ 15.4 µM)
S=C1NC2(CCCC2)Nc2ccccc21	32.5 µg/mL (≈ 149 µM)
COc1ccc(NC(=O)Nc2ccc3c(c2)OCO3)c(C)c1	1.2 µg/mL (≈ 4 µM)
O=C(COC(=O)Cc1ccc(F)cc1)NCCc1ccccc1	> 47.3 µg/mL
Cc1cccc(N2CCN(C(=O)c3ccc4c(c3)OCCO4)CC2)c1C	15.7 µg/mL (≈ 44.5 µM)
Nc1ccccc1C(=O)NCCCN1CCOCC1	> 39.5 µg/mL
CCOc1ncccc1C(=O)Nc1ccc2c(c1)OCO2	2.7 µg/mL (≈ 9.43 µM)
COc1ccc(OC)c(S(=O)(=O)NCCCN2CCOCC2)c1.Cl	> 57.1 µg/mL

SMILES	solubility kinetic
Nc1nc(SCC(=O)O)[nH]c(=O)c1NC(=O)c1ccco1	> 46.5 µg/mL
Cc1cccc(OCC(=O)NCC(C)(C)N2CCOCC2)c1	> 46 µg/mL
COc1ccc(NC(=O)CN2C(=O)COc3ccc(C)cc32)cc1	3.3 µg/mL (≈ 10.1 µM)
O=C1c2ccccc2S(=O)(=O)N1Cc1ccccc1[N+](=O)[O-]	0.7 µg/mL (≈ 2.2 µM)
COc1cccc(C(=O)NCCCNC(=O)c2ccccn2)c1	43.3 µg/mL (≈ 138 µM)
CC(=O)Oc1cc(C(=O)OCC(=O)N2CCc3ccccc3C2)cc(OC(C)=O)c1OC(C)=O	> 70.4 µg/mL
CC(=O)c1ccc(NC(=O)NCc2ccc(F)cc2)cc1	7.8 µg/mL (≈ 27.2 µM)
COC(=O)c1ccc(N2CCCCC2)c(N)c1	> 35.1 µg/mL
CSCCC(NC(=O)c1ccco1)C(=O)NNC(=O)c1n[nH]c(=O)c2ccccc12 (stereo not drawn)	> 64.4 µg/mL
CCC(=O)N1CCc2cc(S(=O)(=O)N3CCCC3)ccc21	7.3 µg/mL (≈ 23.7 µM)
C=CC[n+]1ccc(/C=C2\C=Cc3cc(C)ccc3N2CC)c2ccccc21.[Br-]	> 53 µg/mL
COc1ccc(N=C2NC(=O)/C(=C\c3ccco3)S2)cc1	2.6 µg/mL (≈ 8.66 µM)
CCC(C)NC(=O)CN1C(=O)NC2(CCc3ccccc3C2)C1=O (stereo not drawn)	> 49.4 µg/mL
COc1ccc(CCNC(=O)C2CC=CCC2C(=O)O)cc1 (stereo not drawn)	> 45.5 µg/mL
O=C(/C=C/c1ccc2c(c1)OCO2)c1ccccn1	4.2 µg/mL (≈ 16.6 µM)
O=C(Cc1c(Cl)cccc1Cl)OCc1ccccn1	40.1 µg/mL (≈ 135 µM)
CC(C)(C)CC(C)(C)NC(=O)c1ccccc1	> 35 µg/mL
Cc1onc(-c2c(Cl)cccc2Cl)c1C(O)c1ccc(F)cc1 (stereo not drawn)	42.1 µg/mL (≈ 120 µM)
Cc1cccc(CSCc2ccc(C(=O)NCC3CCCO3)o2)c1 (stereo not drawn)	46.6 µg/mL (≈ 135 µM)
Cc1nn2c(-c3ccncc3)ccnc2c1Cl	> 36.7 µg/mL
COc1cccc(C(=O)Nc2cc(Cl)c(O)c(Cl)c2)c1	15 µg/mL (≈ 48.1 µM)
O=C1CCC([N+](=O)[O-])C(c2ccccc2F)N1 (stereo not drawn)	> 35.7 µg/mL
O=C(CN1CCN(C(=O)c2ccco2)CC1)Nc1ccccc1	> 47 µg/mL
COc1ccc(NC(=O)CN2C(=O)NC(C)(c3ccc4c(c3)OCCO4)C2=O)cc1S(N)(=O)=O (stereo not drawn)	> 73.6 µg/mL

SMILES	solubility kinetic
CC(=O)Cc1cc2cc([N+](=O)[O-])ccc2oc1=O	> 37.1 µg/mL
O=C(COC(=O)CSc1ccc([N+](=O)[O-])cc1)NCC1CCCO1 (stereo not drawn)	> 53.2 µg/mL
Cc1ccc2ncnc(Oc3ncccc3NC(=O)C(C)(C)C)c2c1	> 50.5 µg/mL
O=S(=O)(NCCc1ccccc1)c1ccc(Br)s1	27.5 µg/mL (≈ 79.4 µM)
COC(=O)c1cc(OC)nc(OC)c1	3 µg/mL (≈ 15.2 µM)
Cc1ccc(C(=O)Oc2ccc(C(=S)N3CCOCC3)cc2)cc1	2.5 µg/mL (≈ 7.32 µM)
O=C(NCc1ccccc1)c1ccc(NC(=O)c2ccco2)cc1	2 µg/mL (≈ 6.24 µM)
CCCCC(CC)COCCCN=Cc1c(O)[nH]c(=S)[nH]c1=O (stereo not drawn)	4.1 µg/mL (≈ 12 µM)
O=C(C#Cc1ccccc1)NCc1ccccc1F	8.1 µg/mL (≈ 32 µM)
CCCCOC(=O)c1ccc(NC(=O)C(=O)NCc2ccccn2)cc1	0.8 µg/mL (≈ 2.25 µM)
CC(OC(=O)c1ccc2noc(-c3ccccc3)c2c1)C(N)=O (stereo not drawn)	46.3 µg/mL (≈ 149 µM)
Cc1cc2c(=O)n(C)c(SCC(=O)Nc3ccccc3)nc2s1	0.4 µg/mL (≈ 1.16 µM)
c1ccc(-c2cccc(-c3ccccc3)n2)cc1	< 0.5 µg/mL
Cc1cc(NS(=O)(=O)c2c(C)c(C)cc(C)c2C)no1	> 44.2 µg/mL
CCOC(=O)CNC(=O)N1c2ccccc2Sc2ccccc21	> 49.3 µg/mL
CNc1nc(-c2c(C)n(C)c3ccc(OC)cc23)cs1	23.9 µg/mL (≈ 83.2 µM)
CN(Cc1ccc(F)cc1)C(=O)c1sccc1-c1ccccc1	21.4 µg/mL (≈ 65.8 µM)
O=C(O)CC(CN1C(=O)c2ccccc2C1=O)c1ccccc1 (stereo not drawn)	> 46.4 µg/mL
COc1ccc(CNC(=O)C2CC(=O)N(C3CCCC3)C2)cc1 (stereo not drawn)	> 47.5 µg/mL
Cc1nc(SCC(=O)NCC2CCCO2)nc(C)c1C (stereo not drawn)	> 44.3 µg/mL
CC1CCCCN1C(=O)CSc1nnc2ccccn12 (stereo not drawn)	> 43.6 µg/mL
CCSc1ccc(C(=O)NCC(=O)O)cc1	> 35.9 µg/mL
